The values that follow come from patent US7763626B2, “Compositions and method for enhancing the therapeutic activity of opiods in treatment of pain” (Trustees of Dartmouth College, priority 2004, dated 2010).

For assay [1], the system named is GLAST protein. Description: Western blot analysis of ipsilateral lumbar spinal cord. In kind it is in vivo, rat. To be noted: day 4. The procedure: (§1) Experiments were performed to determine how propentofylline-induced suppression of glial activation contribute to reduced behavioral hypersensitivity after nerve injury. In a preventative paradigm, 10 μg of propentofylline (Sigma) to male Sprague-Dawley rats in 40 μl of sterile saline, or saline vehicle alone was administered intrathecally (i.t.) by lumbar puncture at the L4/5 level under brief halothane anesthesia (n=6-8/group). Treatment began one hour prior to L5 spinal nerve transection and continued daily in the evening until day 4 or 12 post-transection. Rats received either an L5 spinal nerve transection or sham surgery on day 0. The development of mechanical allodynia was monitored as described above in the morning at approximately 15 hours post-propentofylline or saline injection. Rats were euthanized on day 4 or 12 post-transection and tissue was further processed by real time RT-PCR, Western blot, or immunohistochemistry for determination of levels and rate of synthesis of the glutamate transporters GLT-1 and GLAST.
(§2) Tissue was collected from 4-5 rats/group on postoperative days 4 or 12. […]
(§3) Protein obtained from L5 lumbar spinal cord was quantified using the Lowry method (DC assay, Bio-Rad, Richmond, Calif.). […]
(In western blotting, separated proteins are transferred to a membrane and probed.)

Assay [2] relates to GLT-1 protein. Described as above. To be noted: day 12. The format is in vivo, rat. The procedure: as §1, §2, §3
In assay [3] the test system is TNF-α mRNA. Description: RNase protection assay, cytokine mRNA at L5 lumbar spinal cord. To be noted: propentofylline 10 micrograms intrathecally for 5 days during induction of morphine tolerance.
Procedure: After behavioral testing for reactions to the combined treatment, rats were sacrificed and decapitated. An 18-gauge needle was inserted into the caudal end of the vertebral column and the spinal cord was expelled with ice-cold phosphate-buffered saline. The spinal cord was frozen immediately on dry ice and stored at −80° C. until homogenization. The L5 lumbar spinal cord was isolated from the intact frozen cord at the time of mRNA and protein quantification. Total RNA was isolated from the L5 spinal cord by the TRIzol extraction method (Invitrogen Corporation, Carlsbad, Calif).
Assessment of the temporal cytokine mRNA expression in the L5 lumber spinal cord was performed using a Ribonuclease Protection Assay technique. A Multiprobe RPAse kit was used (Pharmingen, San Diego, Calif.). […] Quantitative image analysis was employed to compare mRNA levels based on band intensities for each cytokine. The intensity of each band was measured using image analysis software and assigned an arbitrary unit based on the measured intensity levels. The value for the normalized quantity for each band was obtained by dividing by the L32 house-keeping gene control. Individual mRNA concentration was calculated as the ratio of the expression compared with saline-treated animals in which normal values were weighted as 1.

`CCCn1cnc2c1c(=O)n(CCCCC(C)=O)c(=O)n2C` [propentofylline]: the “GLAST protein compared with saline-treated injured rats” value in assay [1] is recorded as “significant decrease”. Moreover, the “GLT-1 protein compared with L5 spinal nerve transection alone” value in assay [2] is “significantly elevated”. Moreover, in assay [3], the “morphine-induced mRNA upregulation for TNF-α” value is “significantly attenuated”.
